Data taken from patent US20040176349A1, “Antibacterial composition” (priority 2001, published 2004).

Assays:
E. faecalis 24592 = assay: MIC, microbroth dilution (NCCLS), Table 1; format: cell-based; settings: Enterococcus faecalis, 24592
Protocol: (§1) The minimum inhibitory concentration (MIC) of the compounds was determined using the microbroth dilution technique in accordance with NCCLS guidelines, employing Mueller-Hinton broth (National Committee for Clinical Laboratory Standards, NCCLS, 1995 “Methods for dilution antimicrobial susceptibility tests for bacteria that grow aerobically”—approved standard M7-A5).
(§2) The compounds were tested in isolation, at different concentrations.

E. faecalis NCTC 5957 = assay: MIC, microbroth dilution (NCCLS), Table 1; format: cell-based; settings: Enterococcus faecalis, NCTC5957
Protocol: as §1, §2

E. faecalis Phillips = assay: MIC, microbroth dilution (NCCLS), Table 1; format: cell-based; settings: Enterococcus faecalis
Protocol: as §1, §2

E. faecalis SFZ = assay: MIC, microbroth dilution (NCCLS), Table 1; format: cell-based; settings: Enterococcus faecalis
Protocol: as §1, §2

E. faecium NCTC 7171 = assay: MIC, microbroth dilution (NCCLS), Table 1; format: cell-based; settings: Enterococcus faecium, NCTC7171
Protocol: as §1, §2

E. hirae ATCC 10541 = assay: MIC, microbroth dilution (NCCLS), Table 1; format: cell-based; settings: Enterococcus hirae, ATCC10541
Protocol: as §1, §2

VRE 1662 = assay: MIC, microbroth dilution (NCCLS), Table 1; format: cell-based, Enterococcus; settings: Enterococcus, VRE
Protocol: as §1, §2

VRE 300 1562 = assay: MIC, microbroth dilution (NCCLS), Table 1; format: cell-based, Enterococcus; settings: Enterococcus, VRE
Protocol: as §1, §2

VRE 300 1590 = assay: MIC, microbroth dilution (NCCLS), Table 1; format: cell-based, Enterococcus; settings: Enterococcus, VRE
Protocol: as §1, §2

VRE 300 2043 = assay: MIC, microbroth dilution (NCCLS), Table 1; format: cell-based, Enterococcus; settings: Enterococcus, VRE
Protocol: as §1, §2

E. faecalis 5659 (vanA) = assay: Checkerboard microdilution MIC with PFOB, Table 2; format: cell-based
Excerpt: (§3) The aim of the study was to detect any synergy between PFOB and the other antibiotics. For the purposes of the study, synergy was defined in accordance with the FIC (fractional inhibitory concentration) index, as disclosed by Lorian (1991, In “Antibiotics in Laboratory Medicine” 3rd edition, Eds. Williams & Wilkins; esp. p 434-443). In essence, if the combination of test compounds gives at least a 4-fold reduction in the FIC value for each compound, then a synergy may be considered to exist (i.e. FIC of the combination <0.5=synergy; FIC 0.5-2.0=“indifference”; and FIC >2=antagonism).
(§4) In Table 2, results in the checkerboard indicating synergy are hatched, and specific optimum synergistic combinations are boxed.

E. faecalis ATCC 29212 = assay: Checkerboard microdilution MIC with PFOB, Table 2; format: cell-based
Excerpt: as §3, §4

E.faecalis 78097 (van B) = assay: Checkerboard microdilution MIC with PFOB, Table 2; format: cell-based
Excerpt: as §3, §4

E. faecalis ATCC 10541 = assay: Checkerboard microdilution MIC with PFOB, Table 2; format: cell-based
Excerpt: The aim of the study was to detect any synergy between PFOB and the other antibiotics. For the purposes of the study, synergy was defined in accordance with the FIC (fractional inhibitory concentration) index, as disclosed by Lorian (1991, In “Antibiotics in Laboratory Medicine” 3rd edition, Eds. Williams & Wilkins; esp. p 434-443).

Enterococcus strains = assay: MIC against Enterococcus strains, summary of Example 1; format: cell-based; settings: in words
Protocol: as §1, §2

enterococci = assay: Checkerboard study, synergy summary of Example 2; format: cell-based, Enterococcus; settings: in words
Excerpt: as §3

[1] = Enterococcus faecalis, read-out: MIC (alone) of Partner

SMILES: O=C(O)[C@H]1/C(=C/CO)O[C@@H]2CC(=O)N21 [CA, clavulanic acid]
- MIC (E. faecalis 24592): > 128 µg/mL
- MIC (E. faecalis NCTC 5957): > 128 µg/mL
- MIC (E. faecalis Phillips): > 128 µg/mL
- MIC (E. faecalis SFZ): > 128 µg/mL
- MIC (E. faecium NCTC 7171): > 128 µg/mL
- MIC (E. hirae ATCC 10541): > 128 µg/mL
- MIC (VRE 1662): > 128 µg/mL
- MIC (VRE 300 1562): > 128 µg/mL
- MIC (VRE 300 1590): > 128 µg/mL
- MIC (VRE 300 2043): > 128 µg/mL
- MIC of partner antibiotic in the presence of PFOB at 0.5 mg/L (E. faecalis 5659 (vanA); E. faecalis 5659 (vanA), PFOB 0.5 mg/L): >64 µg/mL
- MIC of partner antibiotic in the presence of PFOB at 1 mg/L (E. faecalis 5659 (vanA); E. faecalis 5659 (vanA), PFOB 1 mg/L): >64 µg/mL
- MIC of partner antibiotic in the presence of PFOB at 2 mg/L (E. faecalis 5659 (vanA); E. faecalis 5659 (vanA), PFOB 2 mg/L): >64 µg/mL
- MIC of partner antibiotic in the presence of PFOB at 4 mg/L (E. faecalis 5659 (vanA); E. faecalis 5659 (vanA), PFOB 4 mg/L): >64 µg/mL
- MIC of partner antibiotic in the presence of PFOB at 8 mg/L (E. faecalis 5659 (vanA); E. faecalis 5659 (vanA), PFOB 8 mg/L): >64 µg/mL
- MIC of partner antibiotic in the presence of PFOB at 16 mg/L (E. faecalis 5659 (vanA); E. faecalis 5659 (vanA), PFOB 16 mg/L): >64 µg/mL
- MIC of partner antibiotic in the presence of PFOB at 32 mg/L (E. faecalis 5659 (vanA); E. faecalis 5659 (vanA), PFOB 32 mg/L): >64 µg/mL
- MIC (E. faecalis 5659 (vanA); [1]): > 64 µg/mL
- MIC of partner antibiotic in the presence of PFOB at 0.5 mg/L (E. faecalis ATCC 29212; E. faecalis ATCC 29212, PFOB 0.5 mg/L): >64 µg/mL
- MIC of partner antibiotic in the presence of PFOB at 1 mg/L (E. faecalis ATCC 29212; E. faecalis ATCC 29212, PFOB 1 mg/L): >64 µg/mL
- MIC of partner antibiotic in the presence of PFOB at 2 mg/L (E. faecalis ATCC 29212; E. faecalis ATCC 29212, PFOB 2 mg/L): >64 µg/mL
- MIC of partner antibiotic in the presence of PFOB at 4 mg/L (E. faecalis ATCC 29212; E. faecalis ATCC 29212, PFOB 4 mg/L): >64 µg/mL
- MIC of partner antibiotic in the presence of PFOB at 8 mg/L (E. faecalis ATCC 29212; E. faecalis ATCC 29212, PFOB 8 mg/L): >64 µg/mL
- MIC of partner antibiotic in the presence of PFOB at 16 mg/L (E. faecalis ATCC 29212; E. faecalis ATCC 29212, PFOB 16 mg/L): >64 µg/mL
- MIC of partner antibiotic in the presence of PFOB at 32 mg/L (E. faecalis ATCC 29212; E. faecalis ATCC 29212, PFOB 32 mg/L): >64 µg/mL
- MIC (E. faecalis ATCC 29212; Enterococcus faecalis, ATCC29212, read-out: MIC (alone) of Partner): > 64 µg/mL
- MIC of partner antibiotic in the presence of PFOB at 0.5 mg/L (E.faecalis 78097 (van B); E.faecalis 78097 (van B), PFOB 0.5 mg/L): >64 µg/mL
- MIC of partner antibiotic in the presence of PFOB at 1 mg/L (E.faecalis 78097 (van B); E.faecalis 78097 (van B), PFOB 1 mg/L): >64 µg/mL
- MIC of partner antibiotic in the presence of PFOB at 2 mg/L (E.faecalis 78097 (van B); E.faecalis 78097 (van B), PFOB 2 mg/L): >64 µg/mL
- MIC of partner antibiotic in the presence of PFOB at 4 mg/L (E.faecalis 78097 (van B); E.faecalis 78097 (van B), PFOB 4 mg/L): >64 µg/mL
- MIC of partner antibiotic in the presence of PFOB at 8 mg/L (E.faecalis 78097 (van B); E.faecalis 78097 (van B), PFOB 8 mg/L): >64 µg/mL
- MIC of partner antibiotic in the presence of PFOB at 16 mg/L (E.faecalis 78097 (van B); E.faecalis 78097 (van B), PFOB 16 mg/L): >64 µg/mL
- MIC of partner antibiotic in the presence of PFOB at 32 mg/L (E.faecalis 78097 (van B); E.faecalis 78097 (van B), PFOB 32 mg/L): >64 µg/mL
- MIC (E.faecalis 78097 (van B); [1]): > 64 µg/mL
- MIC of partner antibiotic in the presence of PFOB at 0.5 mg/L (E. faecalis ATCC 10541; E. faecalis ATCC 10541, PFOB 0.5 mg/L): >64 µg/mL
- MIC of partner antibiotic in the presence of PFOB at 1 mg/L (E. faecalis ATCC 10541; E. faecalis ATCC 10541, PFOB 1 mg/L): >64 µg/mL
- MIC of partner antibiotic in the presence of PFOB at 2 mg/L (E. faecalis ATCC 10541; E. faecalis ATCC 10541, PFOB 2 mg/L): >64 µg/mL
- MIC of partner antibiotic in the presence of PFOB at 4 mg/L (E. faecalis ATCC 10541; E. faecalis ATCC 10541, PFOB 4 mg/L): >64 µg/mL
- MIC of partner antibiotic in the presence of PFOB at 8 mg/L (E. faecalis ATCC 10541; E. faecalis ATCC 10541, PFOB 8 mg/L): >64 µg/mL
- MIC of partner antibiotic in the presence of PFOB at 16 mg/L (E. faecalis ATCC 10541; E. faecalis ATCC 10541, PFOB 16 mg/L): >64 µg/mL
- MIC of partner antibiotic in the presence of PFOB at 32 mg/L (E. faecalis ATCC 10541; E. faecalis ATCC 10541, PFOB 32 mg/L): >64 µg/mL
- MIC (E. faecalis ATCC 10541; Enterococcus faecalis, ATCC10541, read-out: MIC (alone) of Partner): > 64 µg/mL
- effect on the MIC of CAZ (Enterococcus strains; clavulanic acid added at 4 mg/L): no significant effect
- activity in isolation against the Enterococcus strains tested (Enterococcus strains; compound alone, all strains of Table 1): inactive
- synergy with PFOB (enterococci): No synergy
